Data from patent publication US9597271B2, “Cosmetic compositions and methods” (The Procter & Gamble Company, priority 2013, dated 2017).
Several values for one entry are separate records, joined by “and”; a condition that tells them apart may be missing. Identical values can stand only once.

Key:
[1] = molecular target: T1, 20S proteasome (Mus musculus, UniProt O55234); assay: Proteasomal protease in vitro assay (ProteasomeGlo, Suc-LLVY luminogenic substrate) in B16 melanoma cells; assay type: cell-based; details: for Fold Change Over Control (luminescence): B16 melanoma cells; for Ricinoleate concentration at which synergy with niacinamide is statistically significant: combined with 250 μM niacinamide
T1 construct: endogenous in cells; host or cells: B16 melanoma cells (lysate after 20-24 h treatment)
T1 sequence (O55234 60-264): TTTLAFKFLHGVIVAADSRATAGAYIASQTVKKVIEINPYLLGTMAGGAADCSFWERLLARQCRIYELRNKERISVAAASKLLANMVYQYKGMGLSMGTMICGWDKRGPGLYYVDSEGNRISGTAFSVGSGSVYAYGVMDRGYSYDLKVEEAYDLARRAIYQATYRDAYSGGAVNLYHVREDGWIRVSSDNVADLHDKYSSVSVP
Protocol: The following proteasomal protease in vitro assay was employed for evaluating activity associated with this pathway. Cultures of B16 melanoma cells (about 25% confluence) were treated with a culture media (Dulbecco's Modified Eagle Medium, 11995-065 Life technologies supplemented with 5% Fetal Bovine Serum, 30-2020, American Tissue Culture Collection and 1% Penicillin/streptomycin, 15140, Life Technologies) and one of 1) a vehicle (DMSO) containing niacinamide, 2) a vehicle (DMSO) containing one of glycerol ricinoleate, sodium ricinoleate and butyl acetyl ricinoleate at varying dilutions, 3) a vehicle (DMSO) containing a combination of niacinamide and one of the ricinoleate compounds listed above, and 4) a vehicle (DMSO) containing 2-hexyl-decanol as a positive control. The final dilution of DMSO in the culture medium was 1% in all instances. The treated melanoma cells were incubated in multi-well plates at 37° C. in a CO2 incubator for a period of 20 to 24 hours. The treated cells were thereafter lyzed by removing the culture medium and replacing it with 100 uL/well of CellGlo lysis reagent (available from Promega, Wis., USA) followed by incubation at room temperature for about 10 minutes. A luminogenic substrate containing a Suc-LLVY peptide sequence recognized by the 20S proteasome was added to the B16 cultures, and the mixtures were incubated in multi-well plates at a temperature of 25° C. for approximately 10 minutes. Luminescence counts (a unit less measurement from the plate reader) from developing the cleaved substrate with luciferase detection system (ProteasomeGlo® from Promega, Madison, Wis.) was measured in an Envision Plate Reader (Perkin Elmer, Waltham, Mass.). Other plate luminometer/luminescence readers may also be used as known in the art.
Luminescence counts for treatment groups were divided by the luminescence counts from the vehicle control (1% DMSO, as diluted in the culture medium). […] 2-hexyldecanol, a known skin tone agent, was also previously found to activate this proteasomal chymotryptic protease activity. See, e.g., Hakozaki et al., A regulator of ubiquitin-proteasome activity, 2-hexyldecanol, suppresses melanin synthesis and the appearance of facial hyperpigmented spots, British Journal of Dermatology 2013, 169 (Supp 2), pp 39-44.

[2] = molecular target: T1, 20S proteasome; details: previously found, Hakozaki et al. 2013; cited from earlier work
[3] = experiment #1, N=3, 20 to 24 hours, DMSO vehicle
[4] = experiment #2, N=3, 20 to 24 hours, DMSO vehicle
[5] = vitamin B3 compound alone, 250 uM, B16 cells, average of 3 replicates
[6] = ricinoleate compound alone, 0.000064 w/v %, B16 cells
[7] = ricinoleate compound alone, 0.00032 w/v %, B16 cells
[8] = ricinoleate compound alone, 0.0016 w/v %, B16 cells
[9] = ricinoleate compound alone, 0.008 w/v %, B16 cells

Molecule	Fold Change Over Control (luminescence) ([1]; Avg. of experiments #1 and #2)	Fold Change Over Control (luminescence) [1, 3]	Fold Change Over Control (luminescence) [1, 4]	Net Luminescence (treatment luminescence counts − vehicle control luminescence counts) [1, 5]	Net Luminescence (treatment luminescence counts − vehicle control luminescence counts) [1, 6]	Net Luminescence (treatment luminescence counts − vehicle control luminescence counts) [1, 7]	Net Luminescence (treatment luminescence counts − vehicle control luminescence counts) [1, 8]	Net Luminescence (treatment luminescence counts − vehicle control luminescence counts) [1, 9]	other results
CCCCCCCCC(CO)CCCCCC (stereo not shown) [2-hexyldecanol, reference compound]	1.16	1.15	1.17						Activation of proteasomal chymotryptic protease activity (in words) [2]: activate
CCCCCC[C@H](C/C=C\CCCCCCCC(=O)OCCCC)OC(C)=O [Butyl acetyl ricinoleate, butyl acetyl ricinoleate]	1.29	1.32	1.26		1224	2164	2357	2439	Ricinoleate concentration at which synergy with niacinamide is statistically significant ([1]; B16 cells): ≥ 0.00032%
COC(=O)c1cccnc1 [Methyl niconate, methyl niconate]				162					
NC(=O)c1cccnc1 [Niacinamide, niacinamide]				158 (4×) and 257 (8×) and 1503					Activation of proteasomal protease activity, single agent (in words) ([1]; B16 cells): lower level of activation
O=C(O)c1cccnc1 [Nicotinic acid, nicotinic acid]				303					
nicotinamide ribose				392					

More lines, main results first:

Fold Change Over Control (luminescence) ([1]; Avg. of experiments #1 and #2)	Fold Change Over Control (luminescence) [1, 3]	Fold Change Over Control (luminescence) [1, 4]	Net Luminescence (treatment luminescence counts − vehicle control luminescence counts) [1, 5]	Net Luminescence (treatment luminescence counts − vehicle control luminescence counts) [1, 6]	Net Luminescence (treatment luminescence counts − vehicle control luminescence counts) [1, 7]	Net Luminescence (treatment luminescence counts − vehicle control luminescence counts) [1, 8]	Net Luminescence (treatment luminescence counts − vehicle control luminescence counts) [1, 9]	Molecule	other results
			105					OCc1cccnc1 [3-pyridinemethanol]	
1.17	1.15	1.18		123	534	839	867	CCCCCC[C@@H](O)C/C=C\CCCCCCCC(=O)OCC(O)CO (stereo partly shown) [Glyceryl ricinoleate, glyceryl ricinoleate]	Net Luminescence (treatment luminescence counts − vehicle control luminescence counts) ([1]; ricinoleate compound alone, 0.00032 w/v %, B16 cells, listed as GR): 287 and 518; Net Luminescence (treatment luminescence counts − vehicle control luminescence counts) ([1]; ricinoleate compound alone, 0.0016 w/v %, B16 cells, listed as GR): 745 and 1258; Net Luminescence (treatment luminescence counts − vehicle control luminescence counts) ([1]; ricinoleate compound alone, 0.008 w/v %, B16 cells, listed as GR): 789 and 1125
							4222	CCCCCC[C@@H](O)C/C=C\CCCCCCCC(=O)OC [Methyl ricinoleate, methyl ricinoleate]	Ricinoleate concentration at which synergy with niacinamide is statistically significant ([1]; B16 cells): 0.008%
1.24	1.26	1.21		123	878	1805	2164	CCCCCC[C@@H](O)C/C=C\CCCCCCCC(=O)[O-].[Na+] [Sodium ricinoleate, sodium ricinoleate]	
